Key:
Assay type in all cases: in vivo
[1] = system: barnyardgrass (Echinochloa crus-galli); assay: Test B flooded paddy; conditions: Echinochloa crus-galli, 336 h; 250 g ai/ha, Flood, 13 to 15 days, scale 0 (no effect) to 100 (complete control); read-out: Plant response rating, Barnyardgrass
Procedure, shortened: (§1)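 Compound was added to standing water 3 cm above soil, flood maintained, and plants held in a greenhouse before visual scoring against controls at 13 to 15 days.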

[2] = system: ducksalad (Heteranthera limosa); assay: Test B flooded paddy; conditions: Heteranthera limosa, 336 h; 250 g ai/ha, Flood, 13 to 15 days, scale 0 (no effect) to 100 (complete control); read-out: Plant response rating, Ducksalad
Procedure, shortened: as §1

rice (Oryza sativa) = assay: Test B flooded paddy; conditions: Oryza sativa, 336 h; 250 g ai/ha, Flood, 13 to 15 days, scale 0 (no effect) to 100 (complete control); read-out: Plant response rating, Rice
Procedure, shortened: as §1

[3] = system: sedge, umbrella (small-flower umbrella sedge, Cyperus difformis); assay: Test B flooded paddy; conditions: Cyperus difformis, 336 h; 250 g ai/ha, Flood, 13 to 15 days, scale 0 (no effect) to 100 (complete control); read-out: Plant response rating, Sedge, Umbrella
Procedure, shortened: as §1

[4] = system: Italian ryegrass (Lolium multiflorum); assay: Test A preemergence; conditions: Lolium multiflorum, pre-emergence, 240 h
Procedure, shortened: (§2)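 Scoring: eye-based comparison with untreated controls, 0 for no effect through 100 for complete control, at about day 10. Treatments: directed soil spray preemergence; foliar spray postemergence on 2–10 cm plants at the one- to two-leaf stage. Medium: loam soil with sand.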

[5] = system: barnyardgrass (Echinochloa crus-galli); assay: Test A preemergence; conditions: Echinochloa crus-galli, pre-emergence, 240 h
Procedure, shortened: as §2

[6] = system: giant foxtail (Setaria faberii); assay: Test A preemergence; conditions: Setaria faberi, pre-emergence, 240 h
Procedure, shortened: as §2

kochia (Kochia scoparia) [7] = assay: Test A preemergence; conditions: Bassia scoparia, pre-emergence, 240 h
Procedure, shortened: as §2

[8] = system: pigweed (Amaranthus retroflexus); assay: Test A preemergence; conditions: Amaranthus retroflexus, pre-emergence, 240 h
Procedure, shortened: as §2

[9] = system: ragweed (common ragweed, Ambrosia elatior); assay: Test A preemergence; conditions: Ambrosia artemisiifolia, pre-emergence, 240 h
Procedure, shortened: as §2

[10] = system: Italian ryegrass (Lolium multiflorum); assay: Test A postemergence; conditions: Lolium multiflorum, post-emergence, 240 h, 0 to 100 scale, read-out: Plant response rating, Ryegrass, Italian
Procedure, shortened: as §2

[11] = system: barnyardgrass (Echinochloa crus-galli); assay: Test A postemergence; conditions: Echinochloa crus-galli, post-emergence, 240 h, 0 to 100 scale, read-out: Plant response rating, Barnyardgrass
Procedure, shortened: as §2

[12] = system: blackgrass (Alopecurus myosuroides); assay: Test A postemergence; conditions: Alopecurus myosuroides, post-emergence, 240 h, 0 to 100 scale, read-out: Plant response rating, Blackgrass
Procedure, shortened: as §2

corn (Zea mays) = assay: Test A postemergence; conditions: Zea mays, post-emergence, 240 h, 0 to 100 scale
Procedure, shortened: as §2

[13] = system: galium (catchweed bedstraw, Galium aparine); assay: Test A postemergence; conditions: Galium, post-emergence, 240 h, 0 to 100 scale, read-out: Plant response rating, Galium
Procedure, shortened: as §2

[14] = system: giant foxtail (Setaria faberii); assay: Test A postemergence; conditions: Setaria faberi, post-emergence, 240 h, 0 to 100 scale, read-out: Plant response rating, Foxtail, Giant
Procedure, shortened: as §2

kochia (Kochia scoparia) [15] = assay: Test A postemergence; conditions: Bassia scoparia, post-emergence, 240 h, 0 to 100 scale, read-out: Plant response rating, Kochia
Procedure, shortened: as §2

[16] = system: pigweed (Amaranthus retroflexus); assay: Test A postemergence; conditions: Amaranthus retroflexus, post-emergence, 240 h, 0 to 100 scale, read-out: Plant response rating, Pigweed
Procedure, shortened: as §2

[17] = system: ragweed (common ragweed, Ambrosia elatior); assay: Test A postemergence; conditions: Ambrosia artemisiifolia, post-emergence, 240 h, 0 to 100 scale, read-out: Plant response rating, Ragweed
Procedure, shortened: as §2

[18] = system: wheat (Triticum aestivum); assay: Test A postemergence; conditions: Triticum aestivum, post-emergence, 240 h, 0 to 100 scale, read-out: Plant response rating, Wheat
Procedure, shortened: as §2

[19] = system: galium (catchweed bedstraw, Galium aparine); assay: Test C preemergence; conditions: Galium, pre-emergence, 336 h, scale 0 to 100, read-out: Plant response rating, Galium
Procedure, shortened: (§3)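 After preemergence treatment of seeds in loam-sand soil or foliar treatment at the 1- to 4-leaf stage of plants in peat/vermiculite medium, pots were kept 13-15 days in the greenhouse. Each was then scored visually, 0 meaning no effect and 100 complete control.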

[20] = system: ragweed (common ragweed, Ambrosia elatior); assay: Test C preemergence; conditions: Ambrosia artemisiifolia, pre-emergence, 336 h, scale 0 to 100, read-out: Plant response rating, Ragweed
Procedure, shortened: as §3

Fc1cccc(Oc2ncc(Cl)cn2)c1Oc1ncc(C(F)(F)F)cn1 [Compound 43, 5-chloro-2-[5-fluoro-6-[[5-(trifluoromethyl)-2-pyrimidinyl]oxy]phenoxy]pyrimidine]
pest or weed control at 250 g/ha [1]: 85% | pest or weed control at 250 g/ha [2]: 100% | plant injury at 250 g/ha (rice (Oryza sativa)): 60% | pest or weed control at 250 g/ha [3]: 90% | pest or weed control at 125 g/ha ([4]; 125 g ai/ha, 0 to 100 scale (0 no effect, 100 complete control), read-out: Ryegrass, Italian plant response rating): 50% | pest or weed control at 500 g/ha ([4]; 500 g ai/ha, 0 to 100 scale, read-out: Plant response rating, Ryegrass, Italian): 100% | pest or weed control at 125 g/ha ([5]; 125 g ai/ha, 0 to 100 scale (0 no effect, 100 complete control), read-out: Barnyardgrass plant response rating): 100% | pest or weed control at 500 g/ha ([5]; 500 g ai/ha, 0 to 100 scale, read-out: Plant response rating, Barnyardgrass): 100% | pest or weed control at 125 g/ha ([6]; 125 g ai/ha, 0 to 100 scale (0 no effect, 100 complete control), read-out: Foxtail, Giant plant response rating): 100% | pest or weed control at 500 g/ha ([6]; 500 g ai/ha, 0 to 100 scale, read-out: Plant response rating, Foxtail, Giant): 100% | pest or weed control at 125 g/ha (kochia (Kochia scoparia) [7]; 125 g ai/ha, 0 to 100 scale (0 no effect, 100 complete control), read-out: Kochia plant response rating): 100% | pest or weed control at 500 g/ha (kochia (Kochia scoparia) [7]; 500 g ai/ha, 0 to 100 scale, read-out: Plant response rating, Kochia): 100% | pest or weed control at 125 g/ha ([8]; 125 g ai/ha, 0 to 100 scale (0 no effect, 100 complete control), read-out: Pigweed plant response rating): 100% | pest or weed control at 500 g/ha ([8]; 500 g ai/ha, 0 to 100 scale, read-out: Plant response rating, Pigweed): 100% | pest or weed control at 125 g/ha ([9]; 125 g ai/ha, 0 to 100 scale (0 no effect, 100 complete control), read-out: Ragweed plant response rating): 70% | pest or weed control at 500 g/ha ([9]; 500 g ai/ha, 0 to 100 scale, read-out: Plant response rating, Ragweed): 100% | pest or weed control at 125 g/ha ([10]; 125 g ai/ha): 80% | pest or weed control at 500 g/ha ([10]; 500 g ai/ha): 100% | pest or weed control at 125 g/ha ([11]; 125 g ai/ha): 90% | pest or weed control at 500 g/ha ([11]; 500 g ai/ha): 100% | pest or weed control at 125 g/ha ([12]; 125 g ai/ha): 90% | pest or weed control at 500 g/ha ([12]; 500 g ai/ha): 100% | Corn plant response rating (crop injury, 0 = no effect, 100 = complete kill) at 125 g/ha (corn (Zea mays); 125 g ai/ha): 70% | Corn plant response rating (crop injury, 0 = no effect, 100 = complete kill) at 500 g/ha (corn (Zea mays); 500 g ai/ha): 100% | pest or weed control at 125 g/ha ([13]; 125 g ai/ha): 100% | pest or weed control at 500 g/ha ([13]; 500 g ai/ha): 100% | pest or weed control at 125 g/ha ([14]; 125 g ai/ha): 90% | pest or weed control at 500 g/ha ([14]; 500 g ai/ha): 100% | pest or weed control at 125 g/ha (kochia (Kochia scoparia) [15]; 125 g ai/ha): 100% | pest or weed control at 500 g/ha (kochia (Kochia scoparia) [15]; 500 g ai/ha): 100% | pest or weed control at 125 g/ha ([16]; 125 g ai/ha): 100% | pest or weed control at 500 g/ha ([16]; 500 g ai/ha): 100% | pest or weed control at 125 g/ha ([17]; 125 g ai/ha): 70% | pest or weed control at 500 g/ha ([17]; 500 g ai/ha): 100% | plant injury at 125 g/ha ([18]; 125 g ai/ha): 80% | plant injury at 500 g/ha ([18]; 500 g ai/ha): 100% | pest or weed control at 31 g/ha ([19]; 31 g ai/ha, preemergence): 95% | pest or weed control at 62 g/ha ([19]; 62 g ai/ha, preemergence): 100% | pest or weed control at 125 g/ha ([19]; 125 g ai/ha, preemergence): 100% | pest or weed control at 16 g/ha ([19]; Preemergence, 16 g ai/ha): 95% | pest or weed control at 31 g/ha ([20]; 31 g ai/ha, preemergence): 80% | pest or weed control at 62 g/ha ([20]; 62 g ai/ha, preemergence): 100% | pest or weed control at 125 g/ha ([20]; 125 g ai/ha, preemergence): 90% | pest or weed control at 16 g/ha ([20]; Preemergence, 16 g ai/ha): 35%
